# Earlier results, collected in patent US20130012613A1, “METHOD FOR SYNTHESIZING CALIXARENE AND/OR CYCLODEXTRIN COPOLYMERS, TERPOLYMERS AND TETRAPOLYMERS, AND USES THEREOF” (Drug Research Technology Transfer LLC, priority 2009, published 2013).
# Settings: native cyclodextrins
row,solubility in water [mg/mL],SMILES
1,127,"OC[C@H]1O[C@@H]2O[C@H]3[C@H](O)[C@@H](O)[C@@H](O[C@H]4[C@H](O)[C@@H](O)[C@@H](O[C@H]5[C@H](O)[C@@H](O)[C@@H](O[C@H]6[C@H](O)[C@@H](O)[C@@H](O[C@H]7[C@H](O)[C@@H](O)[C@@H](O[C@H]1[C@H](O)[C@H]2O)O[C@@H]7CO)O[C@@H]6CO)O[C@@H]5CO)O[C@@H]4CO)O[C@@H]3CO [alpha-CD, alpha-cyclodextrin]"
2,18.8,"OC[C@H]1O[C@@H]2O[C@H]3[C@H](O)[C@@H](O)[C@@H](O[C@H]4[C@H](O)[C@@H](O)[C@@H](O[C@H]5[C@H](O)[C@@H](O)[C@@H](O[C@H]6[C@H](O)[C@@H](O)[C@@H](O[C@H]7[C@H](O)[C@@H](O)[C@@H](O[C@H]8[C@H](O)[C@@H](O)[C@@H](O[C@H]1[C@H](O)[C@H]2O)O[C@@H]8CO)O[C@@H]7CO)O[C@@H]6CO)O[C@@H]5CO)O[C@@H]4CO)O[C@@H]3CO [beta-CD, beta-cyclodextrin]"
3,236,"OC[C@H]1O[C@@H]2O[C@H]3[C@H](O)[C@@H](O)[C@@H](O[C@H]4[C@H](O)[C@@H](O)[C@@H](O[C@H]5[C@H](O)[C@@H](O)[C@@H](O[C@H]6[C@H](O)[C@@H](O)[C@@H](O[C@H]7[C@H](O)[C@@H](O)[C@@H](O[C@H]8[C@H](O)[C@@H](O)[C@@H](O[C@H]9[C@H](O)[C@@H](O)[C@@H](O[C@H]1[C@H](O)[C@H]2O)O[C@@H]9CO)O[C@@H]8CO)O[C@@H]7CO)O[C@@H]6CO)O[C@@H]5CO)O[C@@H]4CO)O[C@@H]3CO [gamma-CD, gamma-cyclodextrin]"
